Test [1] has as its system MCF7. Nature of the test: Cell cycle arrest in MCF7 cells assessed as accumulation at G2/M phase at 200 uM after 48 hrs by flow cytometry. Type of test: functional, Homo sapiens. (In general: Flow cytometry measures light scatter and fluorescence of single cells or particles in a stream.)
Test [2] has as its system MCF7. Nature of the test: Decrease in HER2 expression in MCF7 cells at 200 uM after 18 hrs. Type of test: functional, cell-based. The note with it: Homo sapiens.
In test [3] the test system is MCF7. Nature of the test: Cell cycle arrest in MCF7 cells assessed as accumulation at G2/M phase at 200 uM after 72 hrs by flow cytometry. It counts as functional, Homo sapiens.
Test [4] has as its system MCF7. Nature of the test: Cell cycle arrest in MCF7 cells assessed as accumulation at G0/G1 phase at 200 uM after 48 hrs by flow cytometry. It counts as functional, Homo sapiens.
Test [5] relates to MCF7. Nature of the test: Cell cycle arrest in MCF7 cells assessed as accumulation at subG1 phase at 200 uM after 48 hrs by flow cytometry. Type of test: functional, Homo sapiens.
For test [6], the system named is MCF7. Nature of the test: Cell cycle arrest in MCF7 cells assessed as accumulation at S phase at 200 uM after 48 hrs by flow cytometry. Type of test: functional, Homo sapiens.
For test [7], the system named is MCF7. Nature of the test: Cell cycle arrest in MCF7 cells assessed as accumulation at subG1 phase at 200 uM after 72 hrs by flow cytometry. It counts as functional, Homo sapiens.
The subject of test [8] is MCF7. Nature of the test: Cell cycle arrest in MCF7 cells assessed as accumulation at G0/G1 phase at 200 uM after 72 hrs by flow cytometry. It counts as functional, Homo sapiens.
Test [9] deals with MCF7. Nature of the test: Cell cycle arrest in MCF7 cells assessed as accumulation at S phase at 200 uM after 72 hrs by flow cytometry. It counts as functional, Homo sapiens.
Test [10] relates to MCF7. Nature of the test: Decrease in cdk4 protein level in MCF7 cells at 200 uM after 18 hrs. It counts as functional, cell-based. The settings on record: Homo sapiens.
For test [11], the system named is MCF7. Nature of the test: Cytotoxicity against MCF7 cells assessed as cell viability at 200 uM after 72 hrs by MTT assay. Type of test: functional. The settings on record: Homo sapiens, MCF7, 72 h; read-out: Activity.
The test system of test [12] is MELN. Nature of the test: Inhibition of estradiol-induced ER-mediated transcription in MELN cells by measuring luciferase activity at 200 uM after 18 hrs. Type of test: functional, cell-based. The note with it: Homo sapiens.
Test [13] deals with MCF7. Nature of the test: Growth inhibition of MCF7 cells after 72 hrs by MTT assay. It counts as functional, cell-based. The note with it: Homo sapiens, MCF7, 72 h.
Test [14] concerns MCF7. Nature of the test: Decrease in Raf1 expression in MCF7 cells at 200 uM after 18 hrs. It counts as functional, cell-based. The note with it: Homo sapiens.
The subject of test [15] is MELN. Nature of the test: Inhibition of basal ER-mediated transcription activity in MELN cells by measuring luciferase activity at 2 uM after 18 hrs. It counts as functional, cell-based. The settings on record: Homo sapiens.
Test [16] concerns MELN. Nature of the test: Inhibition of estradiol-induced ER-mediated transcription in MELN cells by measuring luciferase activity at 2 uM after 18 hrs. Type of test: functional, cell-based. The settings on record: Homo sapiens.

The source made the active and inactive calls. No cut-off for these calls is given here.

As to `COc1ccc(C(=O)Nc2c(OC)c3ccc(OC)c(C)c3oc2=O)cc1CC=C(C)C`, the Activity in [1] is 10.8%; in test [3], 6.9%; in test [4] it was 73.3%; in test [5], 3.6%; in test [6], 14.4%; in [7] it was 3.8%. The Activity is 82.1% in [8] and 10.2% in test [9]. For the same compound, in test [2], the outcome was Active.

In the case of `Cc1c(O)ccc2c(O)c(NC(=O)c3ccc4c(c3)CCC(C)(C)O4)c(=O)oc12` [CYCLONOVOBIOCIC ACID], the Activity in [1] is listed as 14.4%; in test [3], 18.6%; in test [4], 46.5%; in test [5], 7.7%; in test [6], 36.2%; in [7], 6%. Moreover, the Activity in [8] was determined as 58.1%; in [9] it was 23.4%. For the same compound, the result in test [10] was Active. Moreover, in [11], the viability at 200 µM is 75%.

For the compound `COc1ccc2c(O)c(NC(=O)c3ccc4c(c3)CCC(C)(C)O4)c(=O)oc2c1C`, the Activity in [1] is reported as 10.7%; in test [3], 6.5%; in test [4], 71.9%; in [5], 3.3%; in [6], 16.2%; in [7] it was 2.5%. For the same compound, the Activity in test [8] is on record as 85.4%; in [9], 8.5%. Further, in [11], the viability at 200 µM turned out to be 75%.

On to `COc1ccc2c(OC)c(NC(=O)c3ccc4c(c3)CCC(C)(C)O4)c(=O)oc2c1C`, for which the Activity in test [1] was 11.9%; in test [3], 7.2%; in test [4], 56.7%; in [5], 7.5%; in test [6], 28.4%; in test [7] it was 3.8%. Besides, the Activity is 77.8% in [8] and 14.8% in [9]. The viability at 200 µM in test [11] was 75%.

A word on the IC50: it is the point on the concentration scale where inhibition reaches its midpoint. Read a low IC50 as greater potency in that assay. For the compound `CO[C@@H]1[C@@H](OC(N)=O)[C@@H](O)[C@H](Oc2ccc3c(O)c(NC(=O)c4ccc(O)c(CC=C(C)C)c4)c(=O)oc3c2C)OC1(C)C` [NOVOBIOCIN], the Activity in [1] amounted to 19.3%; in test [3], 19.3%; in test [4], 59.9%; in test [5], 5.9%; in test [6] it was 19.7%; in test [7] it was 9.8%. Also, the Activity in [8] was 58.3%; in [9], 21.3%. For the same compound, in test [12], the outcome was Active. In [13], this compound had a half-inhibitory concentration (IC50) of 260 µM.

Turning to `Cc1ccc(S(=O)(=O)Oc2ccc3c(-c4ccc(Cl)cc4)c(NC(=O)c4ccc5c(c4)CCC(C)(C)O5)c(=O)oc3c2C)cc1`, the outcome in [14] was Active. Besides, the Activity stood at 9.9% in test [1]; 7.5% in test [3]; 70.4% in test [4]; 3.8% in test [5]; 19.7% in test [6]; 4.9% in [7]. Further, the Activity in [8] was found to be 74.1%; in test [9] it was 17.1%.

`COc1ccc(-c2c(NC(=O)c3ccc4c(c3)CCC(C)(C)O4)c(=O)oc3c(C)c(OC)ccc23)cc1`: the Activity in test [1] turned out to be 11.5%; in test [3], 7.7%; in test [4] it was 71%; in test [5], 3.7%; in [6], 15.3%; in test [7] it was 4%. In addition, the Activity in [8] is recorded as 81.3%; in [9], 9.5%.

Turning to `CC1(C)[C@@H](O)CC[C@]2(C)[C@H]3C(=O)C=C4[C@@H]5C[C@@](C)(C(=O)O)CC[C@]5(C)CC[C@@]4(C)[C@]3(C)CC[C@@H]12`, the outcome in test [15] and in test [16] was Active.
